# From ChEMBL document CHEMBL4152302, “Benzo[d]thiazole-2-carbanilides as new anti-TB chemotypes: Design, synthesis, biological evaluation, and structure-activity relationship” (Eur J Med Chem, 2018)
# How the values were obtained:
# [1] = test system: Mycobacterium tuberculosis; assay: Antimycobacterial activity against Mycobacterium tuberculosis H37Rv ATCC 27294 after 28 days by Two-fold serial dilution assay; assay type: functional; details: H37Rv ATCC 27294, 672 h
# [2] = Cytotoxicity against mouse RAW264.7 cells assessed as inhibition of cell viability at 50 ug/ml after 72 hrs by MTT assay relative to control; assay type: cell-based; details: read-out: INH
# [3] = Selectivity index, ratio of cytotoxic concentration for mouse RAW264.7 cells to MIC99 for Mycobacterium tuberculosis H37Rv ATCC 27294; assay type: toxicity; details: read-out: Selectivity Index
Structure (SMILES),MIC [1],"cytotoxicity at 72 h, 50 ug/ml [2] [%]",selectivity ratio [3]
COc1ccc(NC(=O)c2nc3ccccc3s2)cc1,22 µM,24.6,
O=C(Nc1ccc(N2CCOCC2)cc1)c1nc2ccccc2s1,4.6 µM,18.9,
CCOC(=O)c1nc2ccccc2s1,121 µM,,
O=C(Nc1ccccc1)c1nc2ccccc2s1,98.3 µM,,
CCOC(=O)c1nc2cc(Cl)ccc2s1,12.9 µM,,
CCOC(=O)c1nc2cc(C(F)(F)F)ccc2s1,22.7 µM,,
O=C(Nc1cccc(C(F)(F)F)c1)c1nc2cc(Cl)ccc2s1,70.1 µM,,
Cc1cccc(NC(=O)c2nc3cc(C(F)(F)F)ccc3s2)c1,4.64 µM,34.6,
O=C(Nc1ccc([N+](=O)[O-])cc1)c1nc2cc(Cl)ccc2s1,74.9 µM,,
O=C(Nc1cccc(C(F)(F)F)c1)c1nc2cc(C(F)(F)F)ccc2s1,16 µM,19.8,
COc1cccc(NC(=O)c2nc3cc(Cl)ccc3s2)c1,2.45 µM,18.7,64
O=C(Nc1ccccc1Cl)c1nc2cc(C(F)(F)F)ccc2s1,70.1 µM,,
COc1cc(NC(=O)c2nc3ccccc3s2)cc(OC)c1OC,2.26 µM,30.1,64
COc1ccccc1NC(=O)c1nc2cc(Cl)ccc2s1,78.4 µM,,
O=C(Nc1ccc(F)cc1)c1nc2ccccc2s1,> 91.8 µM,,
Cc1ccc(NC(=O)c2nc3ccccc3s2)cc1,46.6 µM,,
O=C(Nc1cccc([N+](=O)[O-])c1)c1nc2cc(C(F)(F)F)ccc2s1,68.1 µM,,
COc1ccccc1NC(=O)c1nc2cc(C(F)(F)F)ccc2s1,4.43 µM,43.2,
O=C(Nc1cccc(F)c1)c1nc2cc(Cl)ccc2s1,5.09 µM,29.1,
O=C(Nc1ccc(Cl)cc1)c1nc2ccccc2s1,> 86.6 µM,,
O=C(Nc1ccccc1N1CCOCC1)c1nc2cc(Cl)ccc2s1,66.9 µM,,
O=C(Nc1ccccc1)c1nc2cc(Cl)ccc2s1,86.6 µM,,
O=C(Nc1ccccc1)c1nc2cc(C(F)(F)F)ccc2s1,77.6 µM,,
O=C(Nc1ccc(N2CCOCC2)c(F)c1)c1nc2cc(Cl)ccc2s1,31.9 µM,,
O=C(Nc1cccc(F)c1)c1nc2cc(C(F)(F)F)ccc2s1,36.7 µM,,
O=C(Nc1cccc(Cl)c1)c1nc2cc(Cl)ccc2s1,77.3 µM,,
COc1cccc(NC(=O)c2nc3cc(C(F)(F)F)ccc3s2)c1,4.43 µM,26.8,

Structure (SMILES),MIC [1],"cytotoxicity at 72 h, 50 ug/ml [2] [%]",selectivity ratio [3]
O=C(Nc1ccc(N2CCOCC2)c(F)c1)c1nc2ccccc2s1,> 70 µM,,
Cc1ccccc1NC(=O)c1nc2ccccc2s1,> 93.2 µM,,
O=C(Nc1ccc(C(F)(F)F)cc1)c1nc2ccccc2s1,2.42 µM,13.6,64
O=C(Nc1ccc([N+](=O)[O-])cc1)c1nc2cc(C(F)(F)F)ccc2s1,2.12 µM,32.6,64
O=C(Nc1ccccc1N1CCOCC1)c1nc2cc(C(F)(F)F)ccc2s1,30.7 µM,,
COc1cc(NC(=O)c2nc3cc(Cl)ccc3s2)cc(OC)c1OC,66 µM,,
O=C(Nc1ccc(C(F)(F)F)cc1)c1nc2cc(Cl)ccc2s1,4.37 µM,41,
O=C(Nc1ccc(C(F)(F)F)cc1)c1nc2cc(C(F)(F)F)ccc2s1,64 µM,,
Cc1cccc(NC(=O)c2nc3cc(Cl)ccc3s2)c1,20.6 µM,52.2,
O=C(Nc1cccc(C(F)(F)F)c1)c1nc2ccccc2s1,38.8 µM,,
Cc1ccccc1NC(=O)c1nc2cc(C(F)(F)F)ccc2s1,74.3 µM,,
O=C(Nc1ccc([N+](=O)[O-])cc1)c1nc2ccccc2s1,20.9 µM,35.6,
COc1cccc(NC(=O)c2nc3ccccc3s2)c1,> 87.9 µM,,
O=C(Nc1ccc(Br)cc1)c1nc2cc(Cl)ccc2s1,4.24 µM,53.1,
COc1cc(NC(=O)c2nc3cc(C(F)(F)F)ccc3s2)cc(OC)c1OC,1.89 µM,23.4,64
O=C(Nc1cccc(Cl)c1)c1nc2cc(C(F)(F)F)ccc2s1,35 µM,,
O=C(Nc1ccc(Cl)cc1)c1nc2cc(Cl)ccc2s1,2.35 µM,28.9,64
O=C(Nc1cccc(F)c1)c1nc2ccccc2s1,22.9 µM,20.9,
O=C(Nc1ccc(N2CCOCC2)c(F)c1)c1nc2cc(C(F)(F)F)ccc2s1,29.4 µM,,
O=C(Nc1cccc(Cl)c1)c1nc2ccccc2s1,2.7 µM,26.8,64
O=C(Nc1ccc(Cl)cc1)c1nc2cc(C(F)(F)F)ccc2s1,2.19 µM,36.7,64
O=C(Nc1ccc(N2CCOCC2)cc1)c1nc2cc(Cl)ccc2s1,2.09 µM,42.3,64
O=C(Nc1ccccc1C(F)(F)F)c1nc2cc(Cl)ccc2s1,70.1 µM,,
O=C(Nc1ccccc1C(F)(F)F)c1nc2cc(C(F)(F)F)ccc2s1,2 µM,27.8,64
COc1ccc(NC(=O)c2nc3cc(Cl)ccc3s2)cc1,78.4 µM,,
Cc1ccc(NC(=O)c2nc3cc(C(F)(F)F)ccc3s2)cc1,4.64 µM,47.8,
Cc1cc(C)c(NC(=O)c2nc3ccccc3s2)c(C)c1,5.26 µM,17.9,

Structure (SMILES),MIC [1],"cytotoxicity at 72 h, 50 ug/ml [2] [%]",selectivity ratio [3]
O=C(Nc1cccc([N+](=O)[O-])c1)c1nc2cc(Cl)ccc2s1,37.5 µM,,
O=C(Nc1ccc(F)cc1)c1nc2cc(C(F)(F)F)ccc2s1,73.5 µM,,
O=C(Nc1ccccc1Cl)c1nc2cc(Cl)ccc2s1,77.3 µM,,
O=C(Nc1cccc([N+](=O)[O-])c1)c1nc2ccccc2s1,2.61 µM,38.4,64
Cc1cccc(NC(=O)c2nc3ccccc3s2)c1,> 93.2 µM,,
O=C(Nc1ccc(F)cc1)c1nc2cc(Cl)ccc2s1,5.09 µM,34.6,
COc1ccccc1NC(=O)c1nc2ccccc2s1,11 µM,16.7,
Cc1ccc(NC(=O)c2nc3cc(Cl)ccc3s2)cc1,5.15 µM,22.6,
O=C(Nc1ccc(Br)cc1)c1nc2cc(C(F)(F)F)ccc2s1,62.3 µM,,
Cc1cc(C)c(NC(=O)c2nc3cc(Cl)ccc3s2)c(C)c1,75.6 µM,,
O=C(Nc1ccccc1N1CCOCC1)c1nc2ccccc2s1,36.8 µM,,
O=C(Nc1ccccc1F)c1nc2cc(Cl)ccc2s1,5.09 µM,18.1,
COc1ccc(NC(=O)c2nc3cc(C(F)(F)F)ccc3s2)cc1,2.21 µM,35.7,64
O=C(Nc1ccccc1F)c1nc2cc(C(F)(F)F)ccc2s1,73.5 µM,,
Cc1ccccc1NC(=O)c1nc2cc(Cl)ccc2s1,82.6 µM,,
O=C(Nc1ccccc1C(F)(F)F)c1nc2ccccc2s1,38.8 µM,,
O=C(Nc1ccc(Br)cc1)c1nc2ccccc2s1,> 75 µM,,
Cc1cc(C)c(NC(=O)c2nc3cc(C(F)(F)F)ccc3s2)c(C)c1,68.6 µM,,
O=C(Nc1ccccc1F)c1nc2ccccc2s1,11.5 µM,24.9,
O=C(Nc1ccc(N2CCOCC2)cc1)c1nc2cc(C(F)(F)F)ccc2s1,61.4 µM,,
O=C(Nc1ccccc1Cl)c1nc2ccccc2s1,5.4 µM,24,
CC[C@@H](CO)NCCN[C@@H](CC)CO [ETHAMBUTOL],1.56 µg/mL,,
NNC(=O)c1ccncc1 [ISONIAZID],0.098 µg/mL,,
NC(=O)c1cnccn1 [PYRAZINAMIDE],6.25 µg/mL,,
CO[C@H]1/C=C/O[C@@]2(C)Oc3c(C)c(O)c4c(O)c(c(/C=N/N5CCN(C)CC5)c(O)c4c3C2=O)NC(=O)/C(C)=C\C=C\[C@H](C)[C@H](O)[C@@H](C)[C@@H](O)[C@@H](C)[C@H](OC(C)=O)[C@@H]1C [RIFAMPIN],0.197 µg/mL,,
